Measurements reported in patent US9023789B2, “Amylin analogs and pharmaceutical compositions thereof” (Novo Nordisk A/S, priority 2012, dated 2015).
pIC50: −log10 of the molar value. In brackets after ≈: the same amount, converted by molar mass. Read-outs that look alike come from different tables or passages of the source. Numbered stars: 1 amine (or outer) side, 2 acyl side, 3 side chain; on linkers, the order of the positions; unused ones are H or OH. Bridge positions count the residues as written; N and C are the ends. Side chains are listed from the residue outwards. Peptide text beside a SMILES is read from it. * marks the point of attachment. C20 diacid = O=C(O)CCCCCCCCCCCCCCCCCCC(=O)*; γGlu = O=C(O)[C@H](CCC(=O)[*:2])N[*:1]; AEEA = NCCOCCOCC(=O)O

How the values were obtained:
[1] = target: T1, rat amylin receptor (rat calcitonin receptor + rat RAMP 3) (Rattus norvegicus, UniProt P32214+Q9JJ73); experiment: ASSAY (VI) binding to the rat amylin receptor; settings: for pIC50: binding to rat amylin receptor, read-out: rAmylin-R bind IC50
T1 construct: expressed in transfected cells; host or cells: BHK tk'ts 13 (transient, FuGENE 6), membranes
T1 sequence (P32214 25-479 isoform P32214-2 limits assumed): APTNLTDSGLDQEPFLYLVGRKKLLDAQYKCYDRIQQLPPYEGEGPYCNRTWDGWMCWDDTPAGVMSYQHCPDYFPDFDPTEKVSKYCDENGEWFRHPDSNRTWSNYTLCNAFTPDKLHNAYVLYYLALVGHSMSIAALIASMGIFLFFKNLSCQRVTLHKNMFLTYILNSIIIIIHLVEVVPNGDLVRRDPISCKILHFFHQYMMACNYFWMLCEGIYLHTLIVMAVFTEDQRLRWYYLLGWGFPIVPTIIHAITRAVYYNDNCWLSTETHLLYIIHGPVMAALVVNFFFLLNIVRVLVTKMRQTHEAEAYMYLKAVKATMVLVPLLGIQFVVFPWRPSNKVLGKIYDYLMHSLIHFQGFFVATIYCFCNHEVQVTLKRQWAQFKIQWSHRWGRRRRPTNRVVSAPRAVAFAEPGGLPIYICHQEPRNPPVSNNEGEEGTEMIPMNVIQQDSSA
T1 sequence (Q9JJ73 23-147 partner): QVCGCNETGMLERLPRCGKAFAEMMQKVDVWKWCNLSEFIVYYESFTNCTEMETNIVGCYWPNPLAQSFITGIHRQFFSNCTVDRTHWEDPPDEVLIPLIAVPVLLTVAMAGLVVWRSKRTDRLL
Procedure, shortened: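 Membranes for this rat amylin receptor binding assay came from BHK tk′ts 13 cells. The cells were transiently transfected with rat calcitonin receptor using the FuGENE® 6 reagent from Roche, as the manufacturer recommends. The cells were collected approximately 48 hours after transfection, and membranes were then prepared.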

[2] = ASSAY (IV) determination of solubility; assay type: physicochemical
Procedure, shortened: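 Samples of polypeptide, prepared from a water stock at […] and diluted 1:1 into 100 mM buffers spanning pH 3.0 to 8.0, stood 18 hours at room temperature. Polypeptide concentration was then determined by UPLC following centrifugation.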

[3] = target: T2, human amylin 3(a) receptor (human calcitonin receptor + RAMP-3) in BHK570 cells (Homo sapiens, UniProt O60896+P30988); experiment: ASSAY (II)a functional assay, human amylin receptor (CRE luciferase); assay type: cell-based
T2 construct: expressed in transfected cells
Procedure, shortened: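 Receptor activation is measured as cAMP-driven CRE-luciferase expression in BHK cells expressing the calcitonin receptor, with RAMP-3 co-expressed to form the amylin 3(a) receptor. Cells are exposed to compound for 3 hours at 37° C, and luciferase is then quantified by luminescence.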

[4] = Table 7, rat binding selectivity, rCTR IC50 / rAmylin-R IC50
[5] = Table 7a (preferred compounds), rat binding selectivity, rCTR IC50 / rAmylin-R IC50
[6] = ratio of rCTR bind IC50 to rAmylin-R bind IC50
[7] = bistrispropane buffer, pH 6.5, read-out: Solubility pH 6.5 Concentration
[8] = bistrispropane buffer, pH 7.5, read-out: Solubility pH 7.5 Concentration
[9] = bistrispropane buffer, pH 6.0, read-out: Solubility pH 6.0 Concentration
[10] = bistrispropane buffer, pH 7.0, read-out: Solubility pH 7.0 Concentration
[11] = bistrispropane buffer, pH 8.0, read-out: Solubility pH 8.0 Concentration
[12] = glycylglycine buffer, pH 3.0, read-out: Solubility pH 3.0 Concentration
[13] = glycylglycine buffer, pH 4.0, read-out: Solubility pH 4.0 Concentration
[14] = glycylglycine buffer, pH 5.0, read-out: Solubility pH 5.0 Concentration
[15] = hCTR funct. EC50 divided by hAmylin-R funct. EC50
[16] = hCTR funct. EC50 over hAmylin-R funct. EC50
[17] = human functional selectivity: hCTR funct. EC50 / hAmylin-R funct. EC50

T2 sequence (O60896 24-148): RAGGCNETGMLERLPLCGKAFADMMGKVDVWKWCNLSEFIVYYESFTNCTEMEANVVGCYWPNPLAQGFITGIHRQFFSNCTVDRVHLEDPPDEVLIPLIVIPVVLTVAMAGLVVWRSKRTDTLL
T2 sequence (P30988 25-474): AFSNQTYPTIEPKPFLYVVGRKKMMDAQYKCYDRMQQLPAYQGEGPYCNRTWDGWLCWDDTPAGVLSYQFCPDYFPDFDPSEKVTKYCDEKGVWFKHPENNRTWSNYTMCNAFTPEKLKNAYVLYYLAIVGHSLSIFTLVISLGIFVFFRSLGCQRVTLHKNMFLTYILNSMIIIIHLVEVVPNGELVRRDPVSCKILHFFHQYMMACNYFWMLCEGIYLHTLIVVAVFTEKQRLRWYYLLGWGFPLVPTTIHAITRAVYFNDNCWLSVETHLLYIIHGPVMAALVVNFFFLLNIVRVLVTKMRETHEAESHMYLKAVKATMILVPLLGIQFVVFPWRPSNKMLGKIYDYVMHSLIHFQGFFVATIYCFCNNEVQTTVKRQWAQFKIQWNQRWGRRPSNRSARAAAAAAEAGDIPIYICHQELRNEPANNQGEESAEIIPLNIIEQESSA

Row | pIC50 ([1]; Table 7) | Ratio rCT/rAmylin binding [1, 4] | Ratio rCT/rAmylin binding [1, 5] | Ratio rCT/rAmylin binding [1, 6] | solubility at 18 h [2, 7] | solubility at 18 h [2, 8] | solubility at 18 h [2, 9] | solubility at 18 h [2, 10] | solubility at 18 h [2, 11] | solubility at 18 h [2, 12] | solubility at 18 h [2, 13] | solubility at 18 h [2, 14] | Ratio hCT/hAmylin funct. [3, 15] | Ratio hCT/hAmylin funct. [3, 16] | Ratio hCT/hAmylin funct. [3, 17] | Solubility pH 6.5 Concentration ([2]; pH 6.5 (Table 9a)) | Solubility pH 7.0 Concentration ([2]; pH 7.0 (Table 9a)) | Compound
1 | 8.97 | 47.7 | 47.7 | 47.7 | ≥ 200 µM | ≥ 200 µM | ≥ 200 µM | ≥ 200 µM | ≥ 200 µM | ≥ 200 µM | ≥ 200 µM | ≥ 200 µM | 22.5 | 22.5 | 22.5 |  |  | CC[C@H](C)[C@H](NC(=O)[C@H](C)NC(=O)CNC(=O)[C@H](Cc1ccccc1)NC(=O)[C@H](CC(N)=O)NC(=O)[C@@H]1CCCN1C(=O)[C@H](CO)NC(=O)[C@H](CO)NC(=O)[C@H](Cc1c[nH]cn1)NC(=O)[C@H](CCCNC(=N)N)NC(=O)[C@H](CC(C)C)NC(=O)[C@H](Cc1ccccc1)NC(=O)[C@H](CC(N)=O)NC(=O)[C@H](C)NC(=O)[C@H](CC(C)C)NC(=O)[C@H](CCCNC(=N)N)NC(=O)[C@H](CCC(N)=O)NC(=O)[C@@H](NC(=O)[C@H](C)NC(=O)[C@@H]1CSSC[C@H](NC(=O)[C@@H](N)CCCCNC(=O)COCCOCCNC(=O)CC[C@H](NC(=O)CCCCCCCCCCCCCCCCCCC(=O)O)C(=O)O)C(=O)N[C@@H](CC(N)=O)C(=O)N[C@@H]([C@@H](C)O)C(=O)N[C@@H](C)C(=O)N[C@@H]([C@@H](C)O)C(=O)N1)[C@@H](C)O)C(=O)N1CCC[C@H]1C(=O)N[C@@H](CO)C(=O)N[C@@H](CO)C(=O)N[C@H](C(=O)N1CCC[C@H]1C(=O)N[C@H](C(=O)NCC(=O)N[C@@H](CO)C(=O)N[C@@H](CC(N)=O)C(=O)N[C@H](C(=O)N[C@@H](Cc1ccc(O)cc1)C(N)=O)[C@@H](C)O)C(C)C)[C@@H](C)O [Example 49]
2 | 10.08 | 130.1 | 130.1 | 130.1 | ≥ 200 µM | ≥ 200 µM | ≥ 200 µM | ≥ 200 µM | ≥ 200 µM | ≥ 200 µM | ≥ 200 µM | ≥ 200 µM | 9.8 |  | 9.8 |  |  | CC[C@H](C)[C@H](NC(=O)[C@H](C)NC(=O)CNC(=O)[C@H](Cc1ccccc1)NC(=O)[C@H](CC(N)=O)NC(=O)[C@@H]1CCCN1C(=O)[C@H](CO)NC(=O)[C@H](CO)NC(=O)[C@H](Cc1c[nH]cn1)NC(=O)[C@H](CCCNC(=N)N)NC(=O)[C@H](CC(C)C)NC(=O)[C@H](Cc1ccccc1)NC(=O)[C@H](CC(N)=O)NC(=O)[C@H](C)NC(=O)[C@H](CC(C)C)NC(=O)[C@H](CCCNC(=N)N)NC(=O)[C@H](CCC(N)=O)NC(=O)[C@@H](NC(=O)[C@H](C)NC(=O)[C@@H]1CSSC[C@H](NC(=O)[C@@H](N)CCCCNC(=O)COCCOCCNC(=O)CC[C@H](NC(=O)CCCCCCCCCCCCCCCCCCC(=O)O)C(=O)O)C(=O)N[C@@H](CC(N)=O)C(=O)N[C@@H]([C@@H](C)O)C(=O)N[C@@H](C)C(=O)N[C@@H]([C@@H](C)O)C(=O)N1)[C@@H](C)O)C(=O)N1CCC[C@H]1C(=O)N1CCC[C@H]1C(=O)N[C@@H](CO)C(=O)N[C@H](C(=O)N1CCC[C@H]1C(=O)N[C@H](C(=O)NCC(=O)N[C@@H](CO)C(=O)N[C@@H](CC(N)=O)C(=O)N[C@H](C(=O)N[C@@H](Cc1ccc(O)cc1)C(N)=O)[C@@H](C)O)C(C)C)[C@@H](C)O [Example 53] (H-K([AEEA-γGlu-C20 diacid])CNTATCATQRLANFLRHSSPNFGAIPPSTPVGSNTY-NH2; disulfide 2-7; N-terminus assumed)
3 | 10.40 | 131.4 | 131.4 | 131.4 | ≥ 200 µM | ≥ 200 µM | ≥ 200 µM | ≥ 200 µM | 147 µM (≈ 668 µg/mL) | ≥ 200 µM | ≥ 200 µM | ≥ 200 µM | 5.0 |  | 5.0 |  |  | CC[C@H](C)[C@H](NC(=O)[C@H](C)NC(=O)CNC(=O)[C@H](Cc1ccccc1)NC(=O)[C@H](CC(N)=O)NC(=O)[C@@H]1CCCN1C(=O)[C@H](CO)NC(=O)[C@H](CO)NC(=O)[C@H](Cc1c[nH]cn1)NC(=O)[C@H](CCCNC(=N)N)NC(=O)[C@H](CC(C)C)NC(=O)[C@H](Cc1ccccc1)NC(=O)[C@H](CC(N)=O)NC(=O)[C@H](C)NC(=O)[C@H](CC(C)C)NC(=O)[C@H](CCCNC(=N)N)NC(=O)[C@H](CCC(N)=O)NC(=O)[C@@H](NC(=O)[C@H](C)NC(=O)[C@@H]1CSSC[C@H](NC(=O)[C@@H](N)CCCCNC(=O)COCCOCCNC(=O)CC[C@H](NC(=O)CCCCCCCCCCCCCCCCCCC(=O)O)C(=O)O)C(=O)N[C@@H](CC(N)=O)C(=O)N[C@@H]([C@@H](C)O)C(=O)N[C@@H](C)C(=O)N[C@@H]([C@@H](C)O)C(=O)N1)[C@@H](C)O)C(=O)N1CCC[C@H]1C(=O)N[C@@H](CO)C(=O)N1CCC[C@H]1C(=O)N[C@H](C(=O)N[C@@H](CC(N)=O)C(=O)N[C@H](C(=O)NCC(=O)N1CCC[C@H]1C(=O)N[C@@H](CC(N)=O)C(=O)N[C@H](C(=O)N[C@@H](Cc1ccc(O)cc1)C(N)=O)[C@@H](C)O)C(C)C)[C@@H](C)O [Example 56] (H-K([AEEA-γGlu-C20 diacid])CNTATCATQRLANFLRHSSPNFGAIPSPTNVGPNTY-NH2; disulfide 2-7 (inferred); N-terminus assumed)
4 | 9.87 | 76.6 | 76.6 | 76.6 | ≥ 200 µM | 96 µM (≈ 438 µg/mL) | ≥ 200 µM | ≥ 200 µM | 48 µM (≈ 219 µg/mL) | ≥ 200 µM | ≥ 200 µM | ≥ 200 µM | 21.9 | 21.9 | 21.9 | ≧200 μM | ≧200 μM | CC[C@H](C)[C@H](NC(=O)[C@H](C)NC(=O)CNC(=O)[C@H](Cc1ccccc1)NC(=O)[C@H](CC(N)=O)NC(=O)[C@@H]1CCCN1C(=O)[C@H](CO)NC(=O)[C@H](CO)NC(=O)[C@H](Cc1c[nH]cn1)NC(=O)[C@H](CCCNC(=N)N)NC(=O)[C@H](CC(C)C)NC(=O)[C@H](Cc1ccccc1)NC(=O)[C@H](CC(N)=O)NC(=O)[C@H](C)NC(=O)[C@H](CC(C)C)NC(=O)[C@H](CCCNC(=N)N)NC(=O)[C@H](CCC(N)=O)NC(=O)[C@@H](NC(=O)[C@H](C)NC(=O)[C@@H]1CSSC[C@H](NC(=O)[C@@H](N)CCCCNC(=O)COCCOCCNC(=O)CC[C@H](NC(=O)CCCCCCCCCCCCCCCCCCC(=O)O)C(=O)O)C(=O)N[C@@H](CC(N)=O)C(=O)N[C@@H]([C@@H](C)O)C(=O)N[C@@H](C)C(=O)N[C@@H]([C@@H](C)O)C(=O)N1)[C@@H](C)O)C(=O)N1CCC[C@H]1C(=O)N[C@@H](CO)C(=O)N[C@@H](CO)C(=O)N[C@H](C(=O)N[C@@H](CC(N)=O)C(=O)N[C@H](C(=O)NCC(=O)N1CCC[C@H]1C(=O)N[C@@H](Cc1c[nH]cn1)C(=O)N[C@H](C(=O)N[C@@H](Cc1ccc(O)cc1)C(N)=O)[C@@H](C)O)C(C)C)[C@@H](C)O [Example 58] (H-K([AEEA-γGlu-C20 diacid])CNTATCATQRLANFLRHSSPNFGAIPSSTNVGPHTY-NH2; disulfide 2-7)
